Measured values published in BindingDB's records for doi:10.1021/jm00059a019 (Merck Research Laboratories, 1993).

Biological target: T1, Dimer of Gag-Pol polyprotein [489-587] (Human immunodeficiency virus 1, UniProt P12497)
T1 construct: 489-587
Experiment: Protease Inhibition Assay
Conditions: pH 5.5; 30 °C
Protocol: Sensitivity of HIV-1 protease activity to protease inhibitors was determined by a peptide substrate cleavage assay. Protease products were analyzed on a reverse-phase high-pressure liquid chromatograph.

| SMILES | IC50 [nM] |
| --- | --- |
| CC(C)C[C@@H]1[C@H](OC(=O)N[C@@H](Cc2ccccc2)[C@H](O)CN2C[C@H]3CCCC[C@H]3CC2C(=O)NC(C)(C)C)CCS1(=O)=O (stereo partly drawn) [(2R,3R)-2-(2-methylpropyl)-1,1-dioxo--thiolan-3-yl N-[(2S,3R)-4-[(4aS,8aS)-3-(tert-butylcarbamoyl)-decahydroisoquinolin-2-yl]-3-hydroxy-1-phenylbutan-2-yl]carbamate] | 30 |
| C[C@@H]1OCC[C@@H]1OC(=O)N[C@@H](Cc1ccccc1)[C@H](O)CN1C[C@H]2CCCC[C@H]2CC1C(=O)NC(C)(C)C (stereo partly drawn) [(2S,3S)-2-methyloxolan-3-yl N-[(2S,3R)-4-[(4aS,8aS)-3-(tert-butylcarbamoyl)-decahydroisoquinolin-2-yl]-3-hydroxy-1-phenylbutan-2-yl]carbamate] | 52.4 |
| CC(C)(C)NC(=O)C1C[C@@H]2CCCC[C@@H]2CN1C[C@@H](O)[C@H](Cc1ccccc1)NC(=O)OCCS(C)(=O)=O (stereo partly drawn) [2-methanesulfonylethyl N-[(2S,3R)-4-[(4aS,8aS)-3-(tert-butylcarbamoyl)-decahydroisoquinolin-2-yl]-3-hydroxy-1-phenylbutan-2-yl]carbamate] | 1030 |
| CC(C)[C@H]1[C@@H](OC(=O)N[C@@H](Cc2ccccc2)[C@H](O)CN2C[C@H]3CCCC[C@H]3CC2C(=O)NC(C)(C)C)CCS1(=O)=O (stereo partly drawn) [hydroxyethylene isostere] | 11 |
| CC[C@H]1[C@@H](OC(=O)N[C@@H](Cc2ccccc2)[C@H](O)CN2C[C@H]3CCCC[C@H]3CC2C(=O)NC(C)(C)C)CCS1(=O)=O (stereo partly drawn) [(2S,3S)-2-ethyl-1,1-dioxo--thiolan-3-yl N-[(2S,3R)-4-[(4aS,8aS)-3-(tert-butylcarbamoyl)-decahydroisoquinolin-2-yl]-3-hydroxy-1-phenylbutan-2-yl]carbamate] | 5.4 |
| C[C@@H]1[C@H](OC(=O)N[C@@H](Cc2ccccc2)[C@H](O)CN2C[C@H]3CCCC[C@H]3CC2C(=O)NC(C)(C)C)CCS1(=O)=O (stereo partly drawn) [hydroxyethylene isostere] | 22.3 |
| CC(C)[C@@H]1[C@H](OC(=O)N[C@@H](Cc2ccccc2)[C@H](O)CN2C[C@H]3CCCC[C@H]3CC2C(=O)NC(C)(C)C)CCS1(=O)=O (stereo partly drawn) [(2R,3R)-1,1-dioxo-2-(propan-2-yl)--thiolan-3-yl N-[(2S,3R)-4-[(4aS,8aS)-3-(tert-butylcarbamoyl)-decahydroisoquinolin-2-yl]-3-hydroxy-1-phenylbutan-2-yl]carbamate] | 3 |
| C[C@H]1[C@@H](OC(=O)N[C@@H](Cc2ccccc2)[C@H](O)CN2C[C@H]3CCCC[C@H]3CC2C(=O)NC(C)(C)C)CCS1(=O)=O (stereo partly drawn) [(2S,3S)-2-methyl-1,1-dioxo--thiolan-3-yl N-[(2S,3R)-4-[(4aS,8aS)-3-(tert-butylcarbamoyl)-decahydroisoquinolin-2-yl]-3-hydroxy-1-phenylbutan-2-yl]carbamate] | 11.4 |
| CC(C)C[C@H]1[C@@H](OC(=O)N[C@@H](Cc2ccccc2)[C@H](O)CN2C[C@H]3CCCC[C@H]3CC2C(=O)NC(C)(C)C)CCS1(=O)=O (stereo partly drawn) [(2S,3S)-2-(2-methylpropyl)-1,1-dioxo--thiolan-3-yl N-[(2S,3R)-4-[(4aS,8aS)-3-(tert-butylcarbamoyl)-decahydroisoquinolin-2-yl]-3-hydroxy-1-phenylbutan-2-yl]carbamate] | 12 |
| C[C@H]1OCC[C@H]1OC(=O)N[C@@H](Cc1ccccc1)[C@H](O)CN1C[C@H]2CCCC[C@H]2CC1C(=O)NC(C)(C)C (stereo partly drawn) [(2R,3R)-2-methyloxolan-3-yl N-[(2S,3R)-4-[(4aS,8aS)-3-(tert-butylcarbamoyl)-decahydroisoquinolin-2-yl]-3-hydroxy-1-phenylbutan-2-yl]carbamate] | 169 |
| CC(C)(C)NC(=O)C1C[C@@H]2CCCC[C@@H]2CN1C[C@@H](O)[C@H](Cc1ccccc1)NC(=O)O[C@H]1CCS(=O)(=O)C1 (stereo partly drawn) [(3S)-1,1-dioxo--thiolan-3-yl N-[(2S,3R)-4-[(4aS,8aS)-3-(tert-butylcarbamoyl)-decahydroisoquinolin-2-yl]-3-hydroxy-1-phenylbutan-2-yl]carbamate] | 75 |
| CC(C)(C)NC(=O)C1C[C@@H]2CCCC[C@@H]2CN1C[C@@H](O)[C@H](Cc1ccccc1)NC(=O)O[C@@H]1CCS(=O)(=O)C1 (stereo partly drawn) [(3R)-1,1-dioxo--thiolan-3-yl N-[(2S,3R)-4-[(4aS,8aS)-3-(tert-butylcarbamoyl)-decahydroisoquinolin-2-yl]-3-hydroxy-1-phenylbutan-2-yl]carbamate] | 140 |
| CC[C@@H]1[C@H](OC(=O)N[C@@H](Cc2ccccc2)[C@H](O)CN2C[C@H]3CCCC[C@H]3CC2C(=O)NC(C)(C)C)CCS1(=O)=O (stereo partly drawn) [(2R,3R)-2-ethyl-1,1-dioxo--thiolan-3-yl N-[(2S,3R)-4-[(4aS,8aS)-3-(tert-butylcarbamoyl)-decahydroisoquinolin-2-yl]-3-hydroxy-1-phenylbutan-2-yl]carbamate] | 13.1 |
